From patent US11655225B2, “Antimycobacterial heterocyclic amides” (Crestone, Inc., priority 2018, dated 2023)
Converted amounts (≈) assume the structure as drawn.

What was measured:
[1] = system: M. abscessus; test: MIC determination, CLSI M24-A; format: cell-based; details: Mycobacteroides abscessus, range over compounds and species, read-out: MIC90 (concentration which inhibits 90% of strains)
[2] = system: M. chelonae; test: MIC determination, CLSI M24-A; format: cell-based; details: Mycobacteroides chelonae, range over compounds and species, read-out: MIC90 (concentration which inhibits 90% of strains)
[3] = system: azithromycin-, doxycycline, and sulfamethoxazole-resistant M. abscessus; test: MIC against drug-resistant strains; format: cell-based; details: for MIC: Mycobacteroides abscessus, clinically relevant resistant strains, M. abscessus, range over compounds and strains; for activity against resistant strains: azithromycin-, doxycycline, and sulfamethoxazole-resistant M. abscessus
[4] = system: M. fortuitum; test: MIC determination, CLSI M24-A; format: cell-based; details: Mycolicibacterium fortuitum, range over compounds and species, read-out: MIC90 (concentration which inhibits 90% of strains)
[5] = system: Mabs ATCC19977; format: cell-based; details: isolated at 4×MIC on 7H11-ADC agar
[6] = system: Mabs #21; test: 28-day mouse model of chronic NTM lung infection, efficacy; format: in vivo, M. abscessus; details: GM-CSF KO mice; 25 mg/kg once daily over 4 weeks, intratracheal microspray, 5% corn oil/saline emulsion
[7] = mouse, in vivo
[8] = physchem; details: oil or lipid
[9] = system: proton motive force; test: Membrane potential and electrochemical pH gradient monitoring; format: cell-based; details: Mtb intact cells and inverted membrane vesicles; data not shown
[10] = system: M. abscessus; test: Bactericidal activity; format: cell-based
[11] = system: M. tuberculosis; test: Bactericidal activity; format: cell-based

Row | SMILES | MIC90 [1] | MIC90 [2] | MIC [3] | activity against resistant strains [3] | MIC90 [4] | mutations found in spontaneous-resistant mutants [5] | lung bacterial load (CFU) versus vehicle control [6] | tolerability [7] | solubility [8] | effect on proton motive force (membrane potential, electrochemical pH gradient) [9] | bactericidal effect [10] | bactericidal effect [11]
1 | CC12CCCC(C(=O)Nc3nc4ccc(OC(F)(F)F)cc4s3)(CCC1)C2 [Example 5, 5-methyl-N-[6-(trifluoromethoxy)-1,3-benzothiazol-2-yl]bicyclo[3.3.1]nonane-1-carboxamide] | 0.12 to 1 µg/mL (≈ 0.301 to 2.51 µM) | 0.12 to 1 µg/mL (≈ 0.301 to 2.51 µM) | 0.03 to 4 µg/mL (≈ 0.0753 to 10 µM) | active | 0.12 to 1 µg/mL (≈ 0.301 to 2.51 µM) | – | – | – | – | – | – | –
2 | CC1CC(C(=O)Nc2nc3ccc(C(F)(F)F)cc3s2)CC(C)(C)C1 (stereo not shown) [Example 79, 3,3,5-trimethyl-N-[6-(trifluoromethyl)-1,3-benzothiazol-2-yl]cyclohexane-1-carboxamide] | – | – | – | – | – | non-synonymous mutations in their mmpL3 gene (L551S, I306S, A309P) | – | – | – | – | – | –
3 | CC12CC3CC(C)(C1)CC(C(=O)Nc1nc4ccc(OC(F)(F)F)cc4s1)(C3)C2 [Example 45, 3,5-dimethyl-N-[6-(trifluoromethoxy)-1,3-benzothiazol-2-yl]adamantane-1-carboxamide] | 0.12 to 1 µg/mL (≈ 0.283 to 2.36 µM) | 0.12 to 1 µg/mL (≈ 0.283 to 2.36 µM) | 0.03 to 4 µg/mL (≈ 0.0707 to 9.42 µM) | active | 0.12 to 1 µg/mL (≈ 0.283 to 2.36 µM) | – | statistically significant CFU reduction | very well tolerated | ≤ 250 mg/mL | – | – | –
4 | CC1CC(C(=O)Nc2nc3c(F)cc(F)cc3s2)CC(C)(C)C1 (stereo not shown) [Example 80, N-(4,6-difluoro-1,3-benzothiazol-2-yl)-3,3,5-trimethylcyclohexane-1-carboxamide] | – | – | 0.03 to 4 µg/mL (≈ 0.0886 to 11.8 µM) | active | – | non-synonymous mutations in their mmpL3 gene (L551S, I306S, A309P) | – | – | – | did not result from the collapse of the proton motive force | – | –
5 | CC12CCCC(C(=O)Nc3nc4cc(Cl)cc(Cl)c4s3)(CCC1)C2 [Example 2, N-(5,7-dichloro-1,3-benzothiazol-2-yl)-5-methylbicyclo[3.3.1]nonane-1-carboxamide] | 0.12 to 1 µg/mL (≈ 0.313 to 2.61 µM) | 0.12 to 1 µg/mL (≈ 0.313 to 2.61 µM) | 0.03 to 4 µg/mL (≈ 0.0783 to 10.4 µM) | active | 0.12 to 1 µg/mL (≈ 0.313 to 2.61 µM) | – | – | – | – | – | bactericidal | bactericidal
